Molecular target: T1, biotinylated Aβ1-42 (Homo sapiens, UniProt P05067)
T1 construct: To assure monomerisation of biotinylated Aβ1-42 (Anaspec #23523-0.5) the peptide was thoroughly monomerised; purchased Anaspec 23523-0.5
Experiment: Inhibition of Abeta oligomerisation (biotinylated Aβ1-42, neutravidin plate, streptavidin-HRP)
Assay type: biochemical
Conditions: inhibition of Aβ1-42 aggregation, approximately 12 nM Aβ1-42, PBS pH 7.4, 2% DMSO, 30 min RT

T1 sequence (P05067 672-713 limits assumed): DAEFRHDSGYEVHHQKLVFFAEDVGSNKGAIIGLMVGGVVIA

Compound | IC50
Cc1ccc(-c2ccc(-c3cc(CC(=O)O)c(-c4ccc(-c5sc(-c6ccc(-c7ccc(C)cc7C(=O)O)s6)cc5CC(=O)O)s4)s3)s2)c(C(=O)O)c1 [Example 63, 2-{5-[5-(5-{5-[5-(2-Carboxy-4-methylphenyl)thiophen-2-yl]-3-(carboxymethyl)thiophen-2-yl}thiophen-2-yl)-4-(carboxymethy)thiophen-2-yl]thiophen-2-yl}-5-methylbenzoic acid] | 1 µM
O=C(O)/C=C/c1ccc(-c2cc(CC(=O)O)c(-c3ccc(-c4sc(-c5ccc(/C=C/C(=O)O)s5)cc4CC(=O)O)s3)s2)s1 [Example 64] | 2.51 µM
O=C(O)Cc1cc(-c2ccc(-c3cc(CC(=O)O)c(-c4ccc(-c5cccc(C(=O)O)c5)s4)s3)s2)sc1-c1ccc(-c2cccc(C(=O)O)c2)s1 [Example 65, 3-{5-[3-(Carboxymethyl)-5-{5-[4-(carboxymethyl)-5-[5-(3-carboxyphenyl)thiophen-2-yl]thiophen-2-yl]thiophen-2-yl}thiophen-2-yl]thiophen-2-yl}thiophen-2-benzoic acid] | 0.631 µM
O=C(O)Cc1cc(-c2cc(CC(=O)O)c(-c3ccc(-c4cccc(C(=O)O)c4)s3)s2)sc1-c1ccc(-c2cccc(C(=O)O)c2)s1 [Example 66, 3-{5-[3-(Carboxymethyl)-5-[4-(carboxymethyl)-5-[5-(3-carboxyphenyl)thiophen-2-yl]thiophen-2-yl]thiophen-2-yl]thiophen-2-yl}benzoic acid] | 5.01 µM
COC(=O)Cc1cc(-c2ccc(C(=O)O)s2)sc1-c1ccc(-c2sc(-c3ccc(C(=O)O)s3)cc2CC(=O)OC)s1 [Example 69, 5-(5-{5-[5-(5-Carboxythiophen-2-yl)-3-(2-methoxy-2-oxoethyl)thiophen-2-yl]thiophen-2-yl}-4-(2-methoxy-2-oxoethyl)thiophen-2-yl)thiophene-2-carboxylic acid] | 2.51 µM
COC(=O)c1ccc(-c2cc(CC(=O)O)c(-c3ccc(-c4sc(-c5ccc(C(=O)OC)s5)cc4CC(=O)O)s3)s2)s1 [Example 70, 2-(2-{5-[3-(Carboxymethyl)-5-[5-(methoxycarbonyl)thiophen-2-yl]thiophen-2-yl]thiophen-2-yl}-5-[5-(methoxycarbonyl)thiophen-2-yl]thiophen-3-yl)acetic acid] | 3.16 µM
O=C(O)Cc1ccc(-c2ccc(-c3ccc(CC(=O)O)s3)s2)s1 [Example 72, 2-(5-{5-[5-(Carboxymethyl)thiophen-2-yl]thiophen-2-yl}thiophen-2-yl)acetic acid] | 25.1 µM
O=C(O)c1cccc(-c2cc(CCO)c(-c3ccc(-c4sc(-c5cccc(C(=O)O)c5)cc4CCO)s3)s2)c1 [Example 74, 3-(5-{5-[5-(3-Carboxyphenyl)-3-(2-hydroxyethyl)thiophen-2-yl]thiophen-2-yl}-4-(2-hydroxyethyl)thiophen-2-yl)benzoic acid] | 5.01 µM
CS(=O)(=O)c1ccc(-c2cc(CC(=O)O)c(-c3ccc(-c4sc(-c5ccc(C(=O)O)s5)cc4CC(=O)O)s3)s2)cc1 [Example 75, 5-[4-(Carboxymethyl)-5-{5-[3-(carboxymethyl)-5-(4-methanesulfonylphenyl)thiophen-2-yl]thiophen-2-yl}thiophen-2-yl]thiophene-2-carboxylic acid] | 31.6 µM
Cn1nc(C(F)(F)F)cc1-c1cc(CC(=O)O)c(-c2ccc(-c3sc(-c4cc(C(F)(F)F)nn4C)cc3CC(=O)O)s2)s1 [Example 77, 2-(2-{5-[3-(Carboxymethyl)-5-[1-methyl-3-(trifluoromethyl)-1H-pyrazol-5-yl]thiophen-2-yl]thiophen-2-yl}-5-[1-methyl-3-(trifluoromethyl)-1H-pyrazol-5-yl]thiophen-3-yl)acetic acid] | 5.01 µM
O=C(O)Cc1cc(-c2ccc(C(=O)N3CCCC3)c(F)c2)sc1-c1ccc(-c2sc(-c3ccc(C(=O)N4CCCC4)c(F)c3)cc2CC(=O)O)s1 [Example 78, 2-(2-{5-[3-(Carboxymethyl)-5-[3-fluoro-4-(pyrrolidine-1-carbonyl)phenyl]thiophen-2-yl]thiophen-2-yl}-5-[3-fluoro-4-(pyrrolidine-1-carbonyl)phenyl]thiophen-3-yl)acetic acid] | 5.01 µM
O=C(O)Cc1cc(-c2cccc(C(=O)NC3CC3)c2)sc1-c1ccc(-c2sc(-c3cccc(C(=O)NC4CC4)c3)cc2CC(=O)O)s1 [Example 80, 2-(2-{5-[3-(Carboxymethyl)-5-[3-(cyclopropylcarbamoyl)phenyl]thiophen-2-yl]thiophen-2-yl}-5-[3-(cyclopropylcarbamoyl)phenyl]thiophen-3-yl)acetic acid] | 7.94 µM
N#Cc1cccc(-c2cc(CC(=O)O)c(-c3ccc(-c4sc(-c5cccc(C#N)c5)cc4CC(=O)O)s3)s2)c1 [Example 83, 2-(2-{5-[3-(Carboxymethyl)-5-(3-cyanophenyl)thiophen-2-yl]thiophen-2-yl}-5-(3-cyanophenyl)thiophen-3-yl)acetic acid] | 12.6 µM
O=C(O)Cc1ccsc1-c1ccc(-c2cc(CC(=O)O)c(-c3ccc(-c4sc(-c5ccc(-c6sccc6CC(=O)O)s5)cc4CC(=O)O)s3)s2)s1 [Example 84, 2-(2-{5-[3-(Carboxymethyl)-5-{5-[3-(carboxymethyl)thiophen-2-yl]thiophen-2-yl}thiophen-2-yl]thiophen-2-yl}-5-{5-[3-(carboxymethyl)thiophen-2-yl]thiophen-2-yl}thiophen-3-yl)acetic acid] | 1.58 µM
N#Cc1ccc(-c2cc(CC(=O)O)c(-c3ccc(-c4sc(-c5ccc(C#N)s5)cc4CC(=O)O)s3)s2)s1 [Example 85, 2-(2-{5-[3-(Carboxymethyl)-5-(5-cyanothiophen-2-yl)thiophen-2-yl]thiophen-2-yl}-5-(5-cyanothiophen-2-yl)thiophen-3-yl)acetic acid] | 3.98 µM
C#Cc1cc(CC(=O)O)c(-c2ccc(-c3sc(C#C)cc3CC(=O)O)s2)s1 [Example 86, 2-(2-{5-[3-(Carboxymethyl)-5-ethynylthiophen-2-yl]thiophen-2-yl}-5-ethynylthiophen-3-yl)acetic acid] | 20 µM
O=C(O)Cc1cc(-c2cccc(OC(F)(F)F)c2)sc1-c1ccc(-c2sc(-c3cccc(OC(F)(F)F)c3)cc2CC(=O)O)s1 [Example 87, 2-(2-{5-[3-(Carboxymethyl)-5-[3-(trifluoromethoxy)phenyl]thiophen-2-yl]thiophen-2-yl}-5-[3-(trifluoromethoxy)phenyl]thiophen-3-yl)acetic acid] | 1 µM

From patent US9359311B2, “Substituted aromatic oligomers” (NEUROSCIOS GMBH, priority 2011, dated 2016)
